Laboratory results taken from PubChem BioAssay (NCI).
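The compound was tested at five concentrations on cells cultured in 96-well plates, with a 48-hour exposure period. Abbreviation: GI50, concentration required for 50% inhibition of growth. TGI marks complete inhibition of growth.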

How the values were obtained:
Experiment in all cases: NCI tumour cell line growth inhibition, 48 h
IGROV1 ovarian = system: IGROV1 ovarian
MALME-3M melanoma = system: MALME-3M melanoma
RPMI-8226 leukemia = system: RPMI-8226 leukemia
HT29 colon = system: HT29 colon
CCRF-CEM leukemia = system: CCRF-CEM leukemia
K-562 leukemia = system: K-562 leukemia
SK-MEL-5 melanoma = system: SK-MEL-5 melanoma
SNB-19 CNS = system: SNB-19 CNS
A498 renal = system: A498 renal
HCC-2998 colon = system: HCC-2998 colon
OVCAR-8 ovarian = system: OVCAR-8 ovarian
MDA-MB-435 = system: MDA-MB-435

SMILES | TGI (IGROV1 ovarian) | TGI (MALME-3M melanoma) | TGI (RPMI-8226 leukemia) | TGI (HT29 colon) | TGI (CCRF-CEM leukemia) | TGI (K-562 leukemia) | TGI (SK-MEL-5 melanoma) | TGI (SNB-19 CNS) | TGI (A498 renal) | TGI (HCC-2998 colon) | TGI (OVCAR-8 ovarian) | TGI (MDA-MB-435) | GI50 (MALME-3M melanoma) | GI50 (RPMI-8226 leukemia) | GI50 (CCRF-CEM leukemia) | GI50 (SK-MEL-5 melanoma)
CCOC(=O)CC[C@@H](NC(=O)c1ccc(N[C@@H]2c3cc4c(cc3C(c3cc(OC)c(O)c(OC)c3)C3C(=O)OC[C@@H]32)OCO4)cc1)C(=O)OCC (some centres undefined) | 0.32 µM | 0.236 µM | > 10 µM | 0.751 µM | > 10 µM | > 10 µM | 0.144 µM | 0.116 µM | 0.0668 µM | 0.318 µM | – | – | – | – | – | –
CC(c1cccc2ccccc12)/[N+]([O-])=C/c1ccccc1 (centres undefined) | > 100 µM | > 100 µM | > 100 µM | > 100 µM | > 100 µM | > 100 µM | > 100 µM | > 100 µM | > 100 µM | > 100 µM | > 100 µM | – | – | – | – | –
CC1[C@@H](OCc2ccccc2)COC(=O)N1Cc1ccccc1 (some centres undefined) | > 100 µM | > 100 µM | > 100 µM | > 100 µM | > 100 µM | > 100 µM | > 100 µM | > 100 µM | – | – | > 100 µM | > 100 µM | – | – | – | –
CC1=NN(C(=O)Cc2ccccc2)C(=O)/C1=C\C=C\c1ccccc1 | – | > 100 µM | > 100 µM | > 100 µM | > 100 µM | > 100 µM | > 100 µM | > 100 µM | – | > 100 µM | > 100 µM | – | – | – | – | –
COc1ccc2c3ccc4c(c3n(C)c2c1)C(=O)c1ccccc1C4=O | > 100 µM | > 100 µM | > 100 µM | > 100 µM | > 100 µM | > 100 µM | > 100 µM | > 100 µM | > 100 µM | > 100 µM | > 100 µM | – | – | – | – | –
COC(=O)CC1C(=O)OCc2c1cc1n(c2=O)Cc2c-1nc1ccccc1c2OC (centres undefined) | > 100 µM | > 100 µM | > 100 µM | > 100 µM | > 100 µM | > 100 µM | > 100 µM | > 100 µM | > 100 µM | > 100 µM | > 100 µM | – | – | – | – | –
CCOP(=O)(OCC)/C(C#N)=C/c1ccco1 | > 100 µM | > 100 µM | > 100 µM | > 100 µM | > 100 µM | > 100 µM | > 100 µM | – | > 100 µM | > 100 µM | > 100 µM | – | – | – | – | –
CCC1(N=[N+]=[N-])C(=O)Nc2cc(C)ccc2C1=O (centres undefined) | > 100 µM | > 100 µM | – | > 100 µM | > 100 µM | > 100 µM | > 100 µM | > 100 µM | > 100 µM | > 100 µM | > 100 µM | – | – | – | – | –
COc1ccc(C2C(Cl)C(=O)N2NC(=O)Cc2ccccc2)cc1 (centres undefined) | > 100 µM | > 100 µM | > 100 µM | > 100 µM | > 100 µM | > 100 µM | > 100 µM | > 100 µM | – | > 100 µM | > 100 µM | – | – | – | – | –
CC(C)(C)[C@H]1CO[C@]2(C)[C@@H]3C[C@@H]3C(=O)N12 | > 100 µM | > 100 µM | > 100 µM | > 100 µM | > 100 µM | > 100 µM | > 100 µM | > 100 µM | – | > 100 µM | > 100 µM | – | – | – | – | –
CNC(=O)CCNC(=O)CCC(=O)OC | – | – | – | > 100 µM | – | > 100 µM | > 100 µM | > 100 µM | > 100 µM | – | > 100 µM | > 100 µM | – | – | – | –
COC[n+]1cc2cc(OC)c(OC)cc2c2ccc3cc(OC)c(OC)cc3c21 | > 100 µM | > 100 µM | > 100 µM | > 100 µM | > 100 µM | > 100 µM | > 100 µM | > 100 µM | – | > 100 µM | > 100 µM | – | – | – | – | –
CSc1cc(Cl)c(C)cc1S(=O)(=O)NC(=O)NNc1ccc(F)c(Cl)c1 | > 100 µM | > 100 µM | – | > 100 µM | > 100 µM | > 100 µM | > 100 µM | > 100 µM | > 100 µM | > 100 µM | > 100 µM | > 100 µM | – | – | – | –
O=C(c1ccncc1)n1nc(-c2ccccc2)c(N=Nc2ccc([N+](=O)[O-])cc2)c1-c1ccccc1 | > 100 µM | > 100 µM | > 100 µM | > 100 µM | – | > 100 µM | > 100 µM | > 100 µM | > 100 µM | > 100 µM | > 100 µM | – | – | – | – | –
[N-]=[N+]=NC1C(Br)C(=O)NC(=O)N1[C@H]1C[C@H](O)[C@@H](CO)O1 (some centres undefined) | > 100 µM | > 100 µM | > 100 µM | > 100 µM | > 100 µM | > 100 µM | > 100 µM | > 100 µM | > 100 µM | > 100 µM | > 100 µM | – | 15.5 µM | 19.6 µM | 38 µM | 42.2 µM
Cc1cc2oc(=O)[nH]c(=S)c2c(C)c1C | > 100 µM | > 100 µM | > 100 µM | > 100 µM | > 100 µM | > 100 µM | – | > 100 µM | > 100 µM | > 100 µM | > 100 µM | – | – | – | – | –
CCN(CC)Cc1cc(Nc2c3ccccc3nc3c2[nH]c2ccccc23)ccc1O | 4.49 µM | 3.31 µM | 5.83 µM | 2.01 µM | – | > 100 µM | 3.51 µM | 5.03 µM | 2.97 µM | – | 3.11 µM | – | – | – | – | –
